Results published in patent US20100010057A1, “THIAZOLE DERIVATIVES AS INHIBITORS OF P13 KINASE” (CHROMA THERAPEUTICS LTD., priority 2006, published 2010).

Assays:
PI3Kγ (human) = PI3Kγ (human) (Homo sapiens, UniProt P48736); experiment: Inhibition of PI3 kinase γ activity (HTRF); format: biochemical; conditions: ATP at or close to Km, IC50 range, read-out: Inhibitor activity versus PI3 Kinase γ
Protocol: (B) Inhibition of PI3 Kinase V Activity
In a final reaction volume of 20 μl, PI3Kγ (human) is incubated in assay buffer containing 10 μM phosphatidylinositol-4,5-bisphosphate and MgATP (concentration as required). The reaction is initiated by the addition of the MgATP mix. After incubation for 30 minutes at room temperature, the reaction is stopped by the addition of 5 μl of stop solution containing EDTA and biotinylated phosphatidylinositol-3,4,5-trisphosphate. Finally, 5 μl of detection buffer is added, which contains europium-labelled anti-GST monoclonal antibody, GST-tagged GRP1 PH domain and streptavidin-allophycocyanin. The plate is then read in time-resolved fluorescence mode and the homogenous time-resolved fluorescence (HTRF) signal is determined according to the formula HTRF=10000×(Em665 nm/Em620 nm).
Duplicate data points are generated from a ⅓ log dilution series of a stock solution of compound in DMSO. Nine dilutions steps are made from a top concentration of 10 μM, and a ‘no compound’ blank is included. The HTRF PI 3-Kinase assay is performed at an ATP concentration at, or close to, the Km. HTRF ratio data is transformed into % activity of controls and analysed with a four parameter sigmoidal dose-response (variable slope) application. QC criteria is based on Top, Bottom, Hill slope, r^2 and IC50, the concentration giving 50% inhibition, which is reported.
(§1) For each of the assays (B), (C) and (D) above, IC50 values are allocated to one of three ranges as follows: […]

THP-1 cells = experiment: LPS-stimulation of THP-1 cells, TNF-α release; format: cell-based; conditions: Homo sapiens, LPS 1 μg/ml, 6 h, TNF-α by ELISA, IC50 range, read-out: Inhibitor activity versus THP-1 TNFα release
Protocol: (C) LPS-Stimulation of THP-1 Cells
THP-1 cells are plated in 100 μl at a density of 4×10^4 cells/well in V-bottomed 96 well tissue culture treated plates and incubated at 37° C. in 5% CO2 for 16 h. 2 h after the addition of the inhibitor in 100 μl of tissue culture media, the cells are stimulated with LPS (E. coli strain 005:B5, Sigma) at a final concentration of 1 μg/ml and incubated at 37° C. in 5% CO2 for 6 h. TNF-α levels are measured from cell-free supernatants by sandwich ELISA (R&D Systems #QTA00B)
as §1

Chain of PI3Kγ (human) (P48736 whole entry): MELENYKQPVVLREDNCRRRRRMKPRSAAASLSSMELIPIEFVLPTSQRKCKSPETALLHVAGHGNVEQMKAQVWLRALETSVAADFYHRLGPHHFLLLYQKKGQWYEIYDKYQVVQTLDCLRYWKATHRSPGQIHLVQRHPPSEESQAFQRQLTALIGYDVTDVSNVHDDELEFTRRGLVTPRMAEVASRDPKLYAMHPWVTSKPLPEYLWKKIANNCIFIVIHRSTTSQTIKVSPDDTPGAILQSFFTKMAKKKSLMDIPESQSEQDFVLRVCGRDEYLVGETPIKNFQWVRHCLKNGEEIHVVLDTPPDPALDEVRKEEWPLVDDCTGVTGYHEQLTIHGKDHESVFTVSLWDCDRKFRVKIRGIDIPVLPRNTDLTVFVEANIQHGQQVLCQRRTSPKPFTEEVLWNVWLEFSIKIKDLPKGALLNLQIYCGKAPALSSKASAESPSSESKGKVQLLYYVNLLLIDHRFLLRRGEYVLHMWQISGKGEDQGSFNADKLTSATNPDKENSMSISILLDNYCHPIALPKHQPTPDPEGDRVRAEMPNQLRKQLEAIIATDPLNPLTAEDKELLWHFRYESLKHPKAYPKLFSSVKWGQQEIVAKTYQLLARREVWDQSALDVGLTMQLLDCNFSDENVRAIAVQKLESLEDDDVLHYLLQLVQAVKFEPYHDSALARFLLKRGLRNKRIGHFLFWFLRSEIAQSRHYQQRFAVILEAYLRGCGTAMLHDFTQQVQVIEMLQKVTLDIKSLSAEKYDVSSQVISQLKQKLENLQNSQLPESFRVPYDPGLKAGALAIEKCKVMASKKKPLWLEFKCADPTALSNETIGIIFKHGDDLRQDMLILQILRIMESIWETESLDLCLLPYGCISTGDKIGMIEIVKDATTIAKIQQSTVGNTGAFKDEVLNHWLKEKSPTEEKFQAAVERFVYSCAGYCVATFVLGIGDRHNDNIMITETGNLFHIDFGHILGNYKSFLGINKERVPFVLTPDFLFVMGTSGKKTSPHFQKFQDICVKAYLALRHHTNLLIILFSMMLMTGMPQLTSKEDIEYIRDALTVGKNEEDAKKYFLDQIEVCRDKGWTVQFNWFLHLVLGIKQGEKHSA

| SMILES | IC50 (PI3Kγ (human)) [nM] | IC50 (THP-1 cells) [nM] |
| --- | --- | --- |
| Cc1nc(NC(=O)N[C@@H](COC(C)(C)C)C(=O)OC2CCCC2)sc1-c1ccc(Cl)c(S(C)(=O)=O)c1 [Example 4, Cyclopentyl O-tert-butyl-N-({5-[4-chloro-3-(methylsulfonyl)phenyl]-4-methyl-1,3-thiazol-2-yl}carbamoyl)-L-serinate] | 100 to 1000 | > 1000 |
| Cc1nc(NC(=O)CCCN[C@@H](CCC(=O)O)C(=O)OC2CCCC2)sc1-c1ccc(Cl)c(S(C)(=O)=O)c1 [Example 8, (4S)-4-{[4-({5-[4-Chloro-3-(methylsulfonyl)phenyl]-4-methyl-1,3-thiazol-2-yl}amino)-4-oxobutyl]amino}-5-(cyclopentyloxy)-5-oxopentanoic acid] | 100 to 1000 |  |
| Cc1nc(NC(=O)CCCN[C@@H](C(=O)OC2CCCC2)c2ccccc2)sc1-c1ccc(Cl)c(S(C)(=O)=O)c1 [Example 9, Cyclopentyl (2R)-{[4-({5-[4-chloro-3-(methylsulfonyl)phenyl]-4-methyl-1,3-thiazol-2-yl}amino)-4-oxobutyl]amino}(phenyl)acetate] | 100 to 1000 | > 1000 |
| Cc1nc(NC(=O)CCCN[C@H](C(=O)OC2CCCC2)c2ccccc2)sc1-c1ccc(Cl)c(S(C)(=O)=O)c1 [Example 10, Cyclopentyl (2S)-{[4-({5-[4-chloro-3-(methylsulfonyl)phenyl]-4-methyl-1,3-thiazol-2-yl}amino)-4-oxobutyl]amino}(phenyl)acetate] | 100 to 1000 | > 1000 |
| Cc1nc(NC(=O)CCCN[C@@H](Cc2ccccc2)C(=O)OC2CCCC2)sc1-c1ccc(Cl)c(S(C)(=O)=O)c1 [Example 11, Cyclopentyl N-[4-({5-[4-chloro-3-(methylsulfonyl)phenyl]-4-methyl-1,3-thiazol-2-yl}amino)-4-oxobutyl]-L-phenylalaninate] | > 1000 | > 1000 |
| Cc1nc(NC(=O)CCCN[C@@H](COC(C)(C)C)C(=O)OC2CCCC2)sc1-c1ccc(Cl)c(S(C)(=O)=O)c1 [Example 12, Cyclopentyl O-tert-butyl-N-[4-({5-[4-chloro-3-(methylsulfonyl)phenyl]-4-methyl-1,3-thiazol-2-yl}amino)-4-oxobutyl]-L-serinate] | > 1000 | > 1000 |
| Cc1nc(NC(=O)CCCN[C@H](C(=O)OC2CCCC2)C2CCCCC2)sc1-c1ccc(Cl)c(S(C)(=O)=O)c1 [Example 13, Cyclopentyl (2S)-{[4-({5-[4-chloro-3-(methylsulfonyl)phenyl]-4-methyl-1,3-thiazol-2-yl}amino)-4-oxobutyl]amino}(cyclohexyl)acetate] | > 1000 | > 1000 |
| Cc1nc(NC(=O)CCCN[C@@H](CC(C)C)C(=O)OC(C)(C)C)sc1-c1ccc(Cl)c(S(C)(=O)=O)c1 [Example 14, tert-Butyl N-[4-({5-[4-chloro-3-(methylsulfonyl)phenyl]-4-methyl-1,3-thiazol-2-yl}amino)-4-oxobutyl]-L-leucinate] | > 1000 | > 1000 |
| Cc1nc(NC(=O)CCCN[C@@H](COC(C)(C)C)C(=O)OC(C)(C)C)sc1-c1ccc(Cl)c(S(C)(=O)=O)c1 [Example 15, tert-Butyl O-tert-butyl-N-[4-({5-[4-chloro-3-(methylsulfonyl)phenyl]-4-methyl-1,3-thiazol-2-yl}amino)-4-oxobutyl]-L-serinate] | > 1000 | > 1000 |
| Cc1nc(NC(=O)CCN[C@@H](C)C(=O)OC2CCCC2)sc1-c1ccc(Cl)c(S(C)(=O)=O)c1 [Example 16, Cyclopentyl N-[3-({5-[4-chloro-3-(methylsulfonyl)phenyl]-4-methyl-1,3-thiazol-2-yl}amino)-3-oxopropyl]-L-alaninate] | > 1000 | 100 to 1000 |
| Cc1nc(NC(=O)N[C@@H](COC(C)(C)C)C(=O)O)sc1-c1ccc(Cl)c(S(C)(=O)=O)c1 [Example 30, O-tert-Butyl-N-({5-[4-chloro-3-(methylsulfonyl)phenyl]-4-methyl-1,3-thiazol-2-yl}carbamoyl)-L-serine] | > 1000 |  |
| Cc1nc(NC(=O)N[C@@H](Cc2ccccc2)C(=O)O)sc1-c1ccc(Cl)c(S(C)(=O)=O)c1 [Example 31, N-({5-[4-Chloro-3-(methylsulfonyl)phenyl]-4-methyl-1,3-thiazol-2-yl}carbamoyl)-L-phenylalanine] | > 1000 |  |
| Cc1nc(NC(=O)CCCN[C@@H](CC(C)C)C(=O)O)sc1-c1ccc(Cl)c(S(C)(=O)=O)c1 [Example 32, N-4-({5-[4-Chloro-3-(methylsulfonyl)phenyl-4-methyl-1,3-thiazol-2-yl}amino)-4-oxobutyl]-L-leucine] | > 1000 |  |
| Cc1nc(NC(=O)CCCN[C@@H](CCC(=O)O)C(=O)O)sc1-c1ccc(Cl)c(S(C)(=O)=O)c1 [Example 33, N-[4-({5-[4-Chloro-3-(methylsulfonyl)phenyl]-4-methyl-1,3-thiazol-2-yl}amino)-4-oxobutyl]-L-glutamic acid] | > 1000 |  |
| Cc1nc(NC(=O)CCCN[C@@H](C(=O)O)c2ccccc2)sc1-c1ccc(Cl)c(S(C)(=O)=O)c1 [Example 34, (2R)-{[4-({5-[4-Chloro-3-(methylsulfonyl)phenyl]-4-methyl-1,3-thiazol-2-yl}amino)-4-oxobutyl]amino}(phenyl)acetic acid] | > 1000 |  |

Second part, the compound after the results:

| IC50 (PI3Kγ (human)) [nM] | IC50 (THP-1 cells) [nM] | SMILES |
| --- | --- | --- |
| > 1000 |  | Cc1nc(NC(=O)CCCN[C@H](C(=O)O)c2ccccc2)sc1-c1ccc(Cl)c(S(C)(=O)=O)c1 [Example 35, (2S)-{[4-({5-[4-Chloro-3-(methylsulfonyl)phenyl]-4-methyl-1,3-thiazol-2-yl}amino)-4-oxobutyl]amino}(phenyl)acetic acid] |
| > 1000 |  | Cc1nc(NC(=O)CCCN[C@@H](Cc2ccccc2)C(=O)O)sc1-c1ccc(Cl)c(S(C)(=O)=O)c1 [Example 36, N-[4-({5-[4-Chloro-3-(methylsulfonyl)phenyl]-4-methyl-1,3-thiazol-2-yl}amino)-4-oxobutyl]-L-phenylalanine] |
| > 1000 |  | Cc1nc(NC(=O)CCCN[C@@H](COC(C)(C)C)C(=O)O)sc1-c1ccc(Cl)c(S(C)(=O)=O)c1 [Example 37, O-tert-Butyl-N-[4-({5-[4-chloro-3-(methylsulfonyl)phenyl]-4-methyl-1,3-thiazol-2-yl}amino)-4-oxobutyl]-L-serine] |
| > 1000 |  | Cc1nc(NC(=O)CCN[C@@H](C)C(=O)O)sc1-c1ccc(Cl)c(S(C)(=O)=O)c1 [Example 38, N-[3-({5-[4-Chloro-3-(methylsulfonyl)phenyl]-4-methyl-1,3-thiazol-2-yl}amino)-3-oxopropyl]-L-alanine] |
| > 1000 |  | Cc1nc(NCCCN[C@@H](CC(C)C)C(=O)O)sc1-c1ccc(Cl)c(S(C)(=O)=O)c1 [Example 39, N-[3-({5-[4-Chloro-3-(methylsulfonyl)phenyl]-4-methyl-1,3-thiazol-2-yl}amino)propyl]-L-leucine] |
| > 1000 |  | Cc1nc(NCC2CCC(N[C@@H](CC(C)C)C(=O)O)CC2)sc1-c1ccc(Cl)c(S(C)(=O)=O)c1 (stereo partly drawn) [Example 40, N-{4-[({5-[4-Chloro-3-(methylsulfonyl)phenyl]-4-methyl-1,3-thiazol-2-yl}amino)methyl]cyclohexyl}-L-leucine] |
| > 1000 |  | CC(=O)Nc1nc(C)c(-c2ccc(Cl)c(S(=O)(=O)N[C@@H](C)C(=O)O)c2)s1 [Example 41, N-{[5-(2-Acetamido-4-methyl-1,3-thiazol-5-yl)-2-chlorophenyl]sulfonyl}-L-alanine] |
| > 1000 |  | CC(=O)Nc1nc(C)c(-c2ccc(Cl)c(S(=O)(=O)N[C@@H](COC(C)(C)C)C(=O)O)c2)s1 [Example 42, N-{[5-(2-Acetamido-4-methyl-1,3-thiazol-5-yl)-2-chlorophenyl]sulfonyl}-O-tert-butyl-L-serine] |
| > 1000 |  | CC(=O)Nc1nc(C)c(-c2ccc(Cl)c(S(=O)(=O)NCCN[C@@H](CC(C)C)C(=O)O)c2)s1 [Example 43, N-[2-({[5-(2-Acetamido-4-methyl-1,3-thiazol-5-yl)-2-chlorophenyl]sulfonyl}amino)ethyl]-L-leucine] |
| > 1000 |  | CC(=O)Nc1nc(C)c(-c2ccc(Cl)c(S(=O)(=O)N[C@@H](CO)C(=O)O)c2)s1 [Example 44, N-{[5-(2-Acetamido-4-methyl-1,3-thiazol-5-yl)-2-chlorophenyl]sulfonyl}-L-serine] |
| > 1000 |  | Cc1nc(NC(=O)CCCN[C@@H](CO)C(=O)O)sc1-c1ccc(Cl)c(S(C)(=O)=O)c1 [Example 45, N-[4-({5-[4-Chloro-3-(methylsulfonyl)phenyl]-4-methyl-1,3-thiazol-2-yl}amino)-4-oxobutyl]-L-serine] |
